Assay results reported in US20030135023A1, “Peptide structures useful for competitive modulation of dipeptidyl peptidase IV catalysis” (priority 2001, published 2003).
Values joined by “and” are separate entries in the source; they are usually repeats but may differ in a detail not shown here. Equal values may be shown once. Square brackets hold non-standard residues; d marks the D form. Peptide text beside a SMILES is read from it. Tle = CC(C)(C)[C@H](N)C(=O)O

Columns and labels:
purified porcine DP IV = purified porcine DP IV (Sus scrofa, UniProt P22411); assay: Determination of IC50-values, Gly-Pro-pNA cleavage by DP IV; assay type: biochemical; conditions: Gly-Pro-pNA 0.4 mM, HEPES pH 7.6, 30° C.; read-out: IC50
Sequence of purified porcine DP IV (P22411 whole entry): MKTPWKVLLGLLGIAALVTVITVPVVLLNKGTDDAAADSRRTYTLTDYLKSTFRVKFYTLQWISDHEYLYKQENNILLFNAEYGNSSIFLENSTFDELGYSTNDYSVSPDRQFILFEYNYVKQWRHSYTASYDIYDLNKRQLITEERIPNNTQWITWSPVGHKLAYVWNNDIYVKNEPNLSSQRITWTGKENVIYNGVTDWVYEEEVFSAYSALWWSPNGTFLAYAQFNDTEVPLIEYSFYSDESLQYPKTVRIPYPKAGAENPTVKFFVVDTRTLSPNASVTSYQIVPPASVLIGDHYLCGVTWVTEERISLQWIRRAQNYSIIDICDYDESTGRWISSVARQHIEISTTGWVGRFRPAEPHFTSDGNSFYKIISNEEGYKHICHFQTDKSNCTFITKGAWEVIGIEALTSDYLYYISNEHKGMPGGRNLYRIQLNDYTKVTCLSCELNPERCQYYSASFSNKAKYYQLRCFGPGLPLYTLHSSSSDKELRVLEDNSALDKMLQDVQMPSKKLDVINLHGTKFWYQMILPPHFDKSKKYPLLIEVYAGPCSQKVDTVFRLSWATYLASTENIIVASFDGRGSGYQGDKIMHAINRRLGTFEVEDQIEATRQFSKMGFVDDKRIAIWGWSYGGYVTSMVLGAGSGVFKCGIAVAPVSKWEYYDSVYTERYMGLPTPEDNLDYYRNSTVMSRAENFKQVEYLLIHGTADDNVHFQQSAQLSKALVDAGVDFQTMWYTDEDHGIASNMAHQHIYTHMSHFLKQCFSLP
Experimental: 100 μl inhibitor stock solution were mixed with 100 μl buffer (HEPES pH 7.6) and 50 μl substrate (Gly-Pro-pNA, final concentration 0.4 mM) and preincubated at 30° C. Reaction was started by addition of 20 μl purified porcine DP IV. Formation of the product pNA was measured at 405 nm over 10 min using the HTS 7000 Plus plate reader (Perkin Elmer) and slopes were calculated. The final inhibitor concentrations ranged between 1 mM and 30 nM.
For calculation of IC50-values GraFit 4.0.13 (Erithacus Software) was used.

plasma DP IV = molecular target: T1, plasma DP IV (Rattus norvegicus, UniProt P14740); assay: Plasma DP IV activity after intravasal and oral administration in Wistar rats; assay type: in vivo; conditions: for Plasma DP IV activity / DP IV-AUC / Drop of plasma DP IV activity: iv (intravasal) 100 mg/kg b.w.
T1 construct: The assay mixture consisted of 80 μl reagent and 20 μl plasma; from tissue; host or cells: plasma of Wistar rats
T1 sequence (P14740 37-767 limits assumed): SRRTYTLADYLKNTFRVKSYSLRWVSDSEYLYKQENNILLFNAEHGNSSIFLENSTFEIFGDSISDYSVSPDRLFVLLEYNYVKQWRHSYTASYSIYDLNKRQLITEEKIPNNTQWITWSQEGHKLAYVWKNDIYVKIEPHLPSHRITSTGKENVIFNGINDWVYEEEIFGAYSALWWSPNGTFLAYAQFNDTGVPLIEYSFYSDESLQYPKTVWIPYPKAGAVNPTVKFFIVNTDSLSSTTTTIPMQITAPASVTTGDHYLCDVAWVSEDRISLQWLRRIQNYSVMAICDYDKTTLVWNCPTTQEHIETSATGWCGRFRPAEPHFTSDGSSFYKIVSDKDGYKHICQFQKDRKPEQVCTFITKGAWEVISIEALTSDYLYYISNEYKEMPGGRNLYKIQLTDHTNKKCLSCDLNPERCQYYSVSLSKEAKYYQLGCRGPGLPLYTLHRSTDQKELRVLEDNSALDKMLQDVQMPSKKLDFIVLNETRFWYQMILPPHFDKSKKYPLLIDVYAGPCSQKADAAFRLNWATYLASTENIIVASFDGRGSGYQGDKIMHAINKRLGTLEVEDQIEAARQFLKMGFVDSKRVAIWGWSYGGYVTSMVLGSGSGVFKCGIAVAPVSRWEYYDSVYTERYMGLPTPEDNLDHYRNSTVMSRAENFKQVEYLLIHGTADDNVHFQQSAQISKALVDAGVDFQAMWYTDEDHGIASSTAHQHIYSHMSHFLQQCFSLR
Experimental: Rats with intact catheter function were given the test substances intravasal (intraarterial) or oral, respectively, in random order (N=3 Wistar rats in each group). As positive control, […]. isoleucine thiazolidine*fumarate were administered intravasal.
After overnight fasting, 100 μl samples of heparinized arterial blood were collected at −30, −5, and 0 min into ice-cooled Eppendorf tubes (see below). The test substances were dissolved freshly in 1.0 ml saline (0.154 mol/l) and were given at 0 min either oral via a feeding tube ([…], 75 mm; Fine Science Tools, Heidelberg, Germany) or intravasal. For the intravasal route, the catheter was immediately flushed with 30 μl saline and an additional 1 ml of saline was given orally via the feeding tube.
Arterial blood samples were taken thereafter at 5, 10 (only in a limited number of experiments), 20, 40, 60 and 120 min from the carotid catheter of the conscious unrestrained rats and were always given into ice cooled Eppendorf tubes (Eppendorf-Netheler-Hinz, Hamburg, Germany) filled with 10 μl 1 M citrate buffer pH 3.0 for prevention of further hydrolysis of tripeptides by plasma DP IV activity. Eppendorf tubes were centrifuged immediately (12000 rpm for 2 min, Hettich Zentrifuge EBA 12, Tuttlingen; Germany): The plasma fractions were store on ice until analysis or were deeply frozen at −20 ° C. until analysis.
Plasma DP IV activity: The assay mixture consisted of 80 μl reagent and 20 μl plasma. Kinetic measurements of the formation of the yellow product 4-nitroaniline were performed at 390 nm for 1 min at 30° C. after 2 min pre-incubation at the same temperature. The activity was expressed as arbitrary units [AU] and DP IV activity [mU/ml].
The absolute values of plasma DP IV activity, the relative change of plasma DP IV activity and the time and extent of maximal inhibition were calculated. Data presentation included the presentation of area under the curve (AUC), which was used for evaluation of extent of inhibition of plasma DP IV activity during the two hours of observation. AUC was calculated using the trapezoidal rule.
To compare relative changes of parameters under the conditions of different initial values of DP IV activity an uniform standardised mean (values) was set up at the beginning of the test (see Figures and Tables).
Statistical evaluations were performed with Microsoft Excel® 97. All variables are presented as mean and standard deviation (SD). Treatment groups were compared by Student's t-test, within-group changes by paired t-test. Two-tailed values of p<0.05 were considered significant.

Q: With CC[C@H](C)[C@H](NC(=O)[C@@H]1CCCN1C(=O)[C@@H](N)C(C)(C)C)C(=O)O [t-butyl-Gly-Pro-Ile] (H-[Tle]-Pro-Ile-OH; N-terminus and C-terminus assumed) as the compound, how does the IC50 (purified porcine DP IV) read?
A: 9.34 µM

Q: And the “DP IV-AUC0-120 min” value (plasma DP IV; intra-vasal 100 mg/kg b.w.)?
A: −617±234 mU·min·ml^−1

Q: What about the “plasma DP IV at 5 min” value (plasma DP IV; intravasal 100 mg/kg b.w., p<0.05) of the same compound?
A: below 10 mU/ml

Q: What about the “Plasma DP IV activity” value (plasma DP IV; 2.5 min, Mean) of the same compound?
A: 19.01 mU/ml

Q: What about the “Plasma DP IV activity” value (plasma DP IV; 2.5 min, Standardized Mean) of the same compound?
A: 15.18 mU/ml

Q: And the “Plasma DP IV activity” value (plasma DP IV; 2.5 min, individual animals, 100 mg/kg)?
A: 15.35 mU/ml and 27.63 mU/ml and 14.04 mU/ml

Q: And the “Plasma DP IV activity” value (plasma DP IV; 5 min, Mean)?
A: 18.86 mU/ml

Q: And the “Plasma DP IV activity” value (plasma DP IV; 5 min, Standardized Mean)?
A: 15.03 mU/ml

Q: What about the “Plasma DP IV activity” value (plasma DP IV; 5 min, individual animals, 100 mg/kg) of the same compound?
A: 15.35 mU/ml and 25.00 mU/ml and 16.23 mU/ml

Q: What about the “Plasma DP IV activity” value (plasma DP IV; 7.5 min, Mean) of the same compound?
A: 21.05 mU/ml

Q: And the “Plasma DP IV activity” value (plasma DP IV; 7.5 min, Standardized Mean)?
A: 17.22 mU/ml

Q: And the “Plasma DP IV activity” value (plasma DP IV; 7.5 min, individual animals, 100 mg/kg)?
A: 17.11 mU/ml and 27.63 mU/ml and 18.42 mU/ml

Q: And the “Plasma DP IV activity” value (plasma DP IV; 10 min, Mean)?
A: 17.25 mU/ml

Q: What about the “Plasma DP IV activity” value (plasma DP IV; 10 min, Standardized Mean) of the same compound?
A: 13.42 mU/ml

Q: What about the “Plasma DP IV activity” value (plasma DP IV; 10 min, individual animals, 100 mg/kg) of the same compound?
A: 17.11 mU/ml and 20.18 mU/ml and 14.47 mU/ml

Q: And the “Plasma DP IV activity” value (plasma DP IV; 15 min, Mean)?
A: 15.50 mU/ml

Q: And the “Plasma DP IV activity” value (plasma DP IV; 15 min, Standardized Mean)?
A: 11.67 mU/ml

Q: What about the “Plasma DP IV activity” value (plasma DP IV; 15 min, individual animals, 100 mg/kg) of the same compound?
A: 14.47 mU/ml and 18.42 mU/ml and 13.60 mU/ml

Q: And the “Plasma DP IV activity” value (plasma DP IV; 20 min, Mean)?
A: 18.71 mU/ml

Q: What about the “Plasma DP IV activity” value (plasma DP IV; 20 min, Standardized Mean) of the same compound?
A: 14.88 mU/ml

Q: And the “Plasma DP IV activity” value (plasma DP IV; 20 min, individual animals, 100 mg/kg)?
A: 15.35 mU/ml (2×) and 25.44 mU/ml

Q: And the “Plasma DP IV activity” value (plasma DP IV; 40 min, Mean)?
A: 17.98 mU/ml

Q: What about the “Plasma DP IV activity” value (plasma DP IV; 40 min, Standardized Mean) of the same compound?
A: 14.15 mU/ml

Q: And the “Plasma DP IV activity” value (plasma DP IV; 40 min, individual animals, 100 mg/kg)?
A: 14.91 mU/ml and 23.68 mU/ml and 15.35 mU/ml

Q: And the “Plasma DP IV activity” value (plasma DP IV; 60 min, Mean)?
A: 17.25 mU/ml

Q: What about the “Plasma DP IV activity” value (plasma DP IV; 60 min, Standardized Mean) of the same compound?
A: 13.42 mU/ml

Q: And the “Plasma DP IV activity” value (plasma DP IV; 60 min, individual animals, 100 mg/kg)?
A: 15.79 mU/ml and 22.37 mU/ml and 13.60 mU/ml

Q: And the “Plasma DP IV activity” value (plasma DP IV; 120 min, Mean)?
A: 19.44 mU/ml

Q: What about the “Plasma DP IV activity” value (plasma DP IV; 120 min, Standardized Mean) of the same compound?
A: 15.61 mU/ml

Q: And the “Plasma DP IV activity” value (plasma DP IV; 120 min, individual animals, 100 mg/kg)?
A: 17.11 mU/ml and 25.88 mU/ml and 15.35 mU/ml

Q: And the “DP IV-AUC” value (plasma DP IV; Mean)?
A: −673.4 AU · min

Q: What about the “Drop of plasma DP IV activity” value (plasma DP IV; Mean) of the same compound?
A: 5.19 mU/ml

Q: And the “DP IV-AUC” value (plasma DP IV; individual animals, 100 mg/kg)?
A: −452.9 AU · min and −1179.3 AU · min and −388.2 AU · min

Q: And the “Drop of plasma DP IV activity” value (plasma DP IV; individual animals, 100 mg/kg)?
A: 5.70 mU/ml and 6.58 mU/ml and 3.29 mU/ml

Q: And the “time period over which plasma DP IV decreased slowly” value (plasma DP IV; oral 100 mg/kg b.w.)?
A: 40 min
